Source: ChEMBL document CHEMBL1133389, “Antihypertensive activity of substituted 2,3,8,8a-tetrahydro-7H-oxazolo[3,2-a]pyridinedicarboxylate enantiomers” (Bioorg Med Chem Lett, 2000)
The source made the active and inactive calls. No cut-off for these calls is given here.

Experiments:
Assay type in all cases: functional, organism-based
Set-up in all cases: dose 50 mg/kg
Rattus norvegicus [1] = experiment: Tested for antihypertensive activity at the dose of 50 mg/kg in spontaneously hypertensive rats; active
Rattus norvegicus [2] = experiment: Tested for relative acute toxicity at the dose of 50 mg/kg after intraperitoneal administration in spontaneously hypertensive rats; active
Rattus norvegicus [3] = experiment: Tested for antihypertensive activity at the dose of 50 mg/kg in spontaneously hypertensive rats; inactive
Rattus norvegicus [4] = experiment: Tested for reflex tachycardia at the dose of 50 mg/kg when administered intraperitoneally in spontaneously hypertensive rats; active
Rattus norvegicus [5] = experiment: Tested for relative acute toxicity at the dose of 50 mg/kg after intraperitoneal administration in spontaneously hypertensive rats; inactive

CCOC(=O)[C@H]1[C@H](c2cccc([N+](=O)[O-])c2)C(C(=O)OC)=C(C)N2CCO[C@@]12C
Activity (Rattus norvegicus [1]): Active

CCOC(=O)[C@H]1[C@H](c2cccc([N+](=O)[O-])c2)C(C(=O)OC)=C(C)N2C[C@H](C)O[C@@]12C
Activity (Rattus norvegicus [1]): Active

COC(=O)C1=C(C)N2C[C@@H](C)O[C@]2(C)[C@H](C(=O)OC)[C@H]1c1cccc(Cl)c1
Activity (Rattus norvegicus [2]): Active

CCOC(=O)[C@@H]1[C@@H](c2cccc([N+](=O)[O-])c2)C(C(=O)OC)=C(C)N2C[C@@H](C)O[C@]12C
Activity (Rattus norvegicus [3]): inactive

COC(=O)C1=C(C)NC(C)=C(C(=O)OC)C1c1ccccc1[N+](=O)[O-]
Activity (Rattus norvegicus [4]): Active

COC(=O)C1=C(C)N2C[C@H](C)O[C@@]2(C)[C@@H](C(=O)OC)[C@@H]1c1cccc(Cl)c1
Activity (Rattus norvegicus [5]): inactive
